Data: patent publication US20210330611A1, “THERAPY FOR NEUROLOGICAL DISEASES/DISORDERS” (priority 2020, published 2021)
Structures can show the parent of a compound that is named as a salt. Where two headings read alike, the source gives them in different places.

What was measured:
[1] = tested on: LPS-induced microglia activation; assay: Image-based assay of LPS-induced microglia activation (HTS and dose response); assay type: cell-based, rat; conditions: for inhibition at 10 µM: Rattus norvegicus, Microglia, 48 h, read-out: LPS % inhibition
primary rat microglia [2] = tested on: primary rat microglia;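 on Fibrin % cell toxicity: share of dead cells sized under 150 µm2 at 10 µM in fibrin-stimulated microglia HTS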
[3] = tested on: fibrin- and LPS-induced microglia activation; assay: cells; assay type: cell-based, rat
[4] = tested on: fibrin-induced microglia activation; assay: Image-based assay of fibrin-induced microglia activation (HTS and dose response); assay type: cell-based, rat; conditions: for inhibition at 10 µM: Rattus norvegicus, Microglia, read-out: Fibrin % inhibition
primary rat microglia [5] = tested on: primary rat microglia; remark: listed apart in the source;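 on Fibrin % cell toxicity: share of dead cells sized under 150 µm2 at 10 µM in fibrin-stimulated microglia HTS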
[6] = primary microglia HTS, LPS stimulation, activation = cell size >800 μm2
[7] = quadrant by fibrin and LPS inhibition in HTS of 1907 compounds
[8] = primary microglia HTS, fibrin stimulation, activation = cell size >800 μm2
[9] = primary microglia HTS, LPS stimulation, increased cell size (>800 μm^2) as marker of activation
[10] = primary microglia HTS, fibrin stimulation, increased cell size (>800 μm^2) as marker of activation

| SMILES | inhibition at 10 µM [1] [%] | Fibrin % cell toxicity (primary rat microglia [2]; rat) [%] | Quadrant (FIG. 5b) [3] | LPS % cell toxicity (primary rat microglia [5]; rat) [%] | Quadrant (FIG. 5b) [3, 7] | inhibition at 10 µM [1, 9] [%] | inhibition at 10 µM [4, 10] [%] | also measured |
| --- | --- | --- | --- | --- | --- | --- | --- | --- |
| c1ccc([C@H]2CN3CCSC3=N2)cc1 [Levamisole] | 12 | 0 | Q4 | 0 |  |  |  | inhibition at 10 µM [4]: -15% |
| N[C@@H](Cc1ccc(O)c(O)c1)C(=O)O [Levodopa] |  | 1 |  | 0 | Q4 |  |  | inhibition at 10 µM [1, 6]: -5%; inhibition at 10 µM [4, 8]: 17% |
| CC(C)(C)NC[C@H](O)c1ccc(O)c(CO)c1 [Levosalbutamol] |  | 0 |  | 0 | Q4 |  |  | inhibition at 10 µM [1, 6]: 11%; inhibition at 10 µM [4, 8]: -29% |
| Cl[C@H]1[C@H](Cl)[C@@H](Cl)[C@@H](Cl)[C@H](Cl)[C@H]1Cl [Lindane] |  | 0 |  | 0 | Q4 |  |  | inhibition at 10 µM [1, 6]: 11%; inhibition at 10 µM [4, 8]: 42% |
| CC(=O)NC[C@H]1CN(c2ccc(N3CCOCC3)c(F)c2)C(=O)O1 [Linezolid] | 19 | 1 | Q4 | 0 |  |  |  | inhibition at 10 µM [4]: -18% |
| [H-].[Li+] [Lithium hydride] |  |  | Q4 |  |  |  |  | LPS % inhibition [1]: 20%; Fibrin % cell toxicity (primary rat microglia [2]): 1%; Fibrin % inhibition [4]: −6%; LPS % cell toxicity (primary rat microglia [5]): 0% |
| O=NN(CCCl)C(=O)NC1CCCCC1 [Lomustine] |  | 1 |  | 1 | Q4 |  |  | inhibition at 10 µM [1, 6]: 19%; inhibition at 10 µM [4, 8]: 0% |
| CN(C)C(=O)C(CCN1CCC(O)(c2ccc(Cl)cc2)CC1)(c1ccccc1)c1ccccc1 [Loperamide] | 63 | 1 | Q1 | 2 |  |  |  | inhibition at 10 µM [4]: 12% |
| CCCCc1nc(Cl)c(CO)n1Cc1ccc(-c2ccccc2-c2nnn[nH]2)cc1 [Losartan, Losartan Potassium] |  |  |  |  | Q4 |  |  | LPS % inhibition [1, 9]: 19%; Fibrin % cell toxicity (primary rat microglia [2]): 1%; Fibrin % inhibition [4, 10]: −3%; LPS % cell toxicity (primary rat microglia [5]): 1% |
| CNCCCC12CCC(c3ccccc31)c1ccccc12 [Maprotiline hydrochloride, reference compound] | 67 | 1 | Q1 | 1 |  |  |  | Activity [3]: fib/LPS; Fibrin % inhibition ([4]; hydrochloride): 31% |
| Cc1cccc(Nc2ccccc2C(=O)O)c1C [Mefenamic Acid] |  | 1 |  | 1 | Q4 | 3 | -6 |  |
| OC(c1cc(C(F)(F)F)nc2c(C(F)(F)F)cccc12)C1CCCCN1 (stereo not shown) [Mefloquine] |  | 1 |  | 0 | Q4 | 13 | -18 |  |
| N[C@@H](Cc1ccc(N(CCCl)CCCl)cc1)C(=O)O [Melphalan] |  | 0 |  | 0 | Q4 | 3 | 28 |  |
| CC1CCC(C(C)C)C(O)C1 (stereo not shown) [Menthol] | 0 | 1 | Q4 | 0 |  |  |  | inhibition at 10 µM [4]: -20% |
| Cc1ccccc1OCC(O)CO (stereo not shown) [Mephenesin] |  | 0 |  | 0 | Q4 | 13 | 14 |  |
| COc1ccc(CN(CCN(C)C)c2ccccn2)cc1 [Mepyramine] |  | 0 |  | 0 | Q4 | 13 | -11 |  |
| Sc1ncnc2nc[nH]c12 [Mercaptopurine] |  | 0 |  | 0 | Q4 | 9 | 2 |  |
| CN(C)C(=N)N=C(N)N [Metformin] | 0 | 0 | Q4 | 0 |  |  |  | inhibition at 10 µM [4]: -15% |
| Cn1cc[nH]c1=S [Methimazole] | 12 | 0 | Q4 | 0 |  |  |  | inhibition at 10 µM [4]: -29% |
| COC(C)(C)CCC[C@H](C)C/C=C/C(C)=C/C(=O)OC(C)C [Methoprene (s)] |  |  |  |  | Q4 |  |  | LPS % inhibition [1, 9]: 12%; Fibrin % cell toxicity (primary rat microglia [2]): 1%; Fibrin % inhibition [4, 10]: −9%; LPS % cell toxicity (primary rat microglia [5]): 0% |
| CN(Cc1cnc2nc(N)nc(N)c2n1)c1ccc(C(=O)N[C@@H](CCC(=O)O)C(=O)O)cc1 [Methotrexate] |  | 1 |  | 0 | Q4 | -4 | -32 |  |
| COc1c2occc2cc2ccc(=O)oc12 [Methoxsalen] |  | 0 |  | 0 | Q4 | 14 | -31 |  |
| Cc1cc(C(C)(C)CC(C)(C)C)ccc1OCCOCC[N+](C)(C)Cc1ccccc1.[Cl-] [Methylbenzethonium Chloride] |  |  |  |  |  |  |  | LPS % inhibition ([1]; primary microglia HTS, LPS stimulation, compounds at 10 μM): 108%; Fibrin % cell toxicity (primary rat microglia [2]): 17%; Quadrant (FIG. 5b) ([3]; quadrant by fibrin and LPS inhibition, HTS at 10 μM): Q2; Fibrin % inhibition ([4]; primary microglia HTS, fibrin stimulation, compounds at 10 μM): 105%; LPS % cell toxicity (primary rat microglia [5]): 10% |
| CN(C)c1ccc2nc3ccc(=[N+](C)C)cc-3sc2c1 [Methylene Blue] | 73 | 1 | Q1 | 1 |  |  |  | inhibition at 10 µM [4]: 25% |
| CC[C@@H](CO)NC(=O)[C@@H]1C=C2c3cccc4[nH]cc(c34)C[C@H]2N(C)C1 [Methylergometrine] |  | 0 |  | 0 | Q4 | 7 | -43 |  |
| Cc1ncc([N+](=O)[O-])n1CCO [Metronidazole] |  | 0 |  | 1 | Q4 | 15 | -12 |  |
| CC(C)(C(=O)c1cccnc1)c1cccnc1 [Metyrapone] |  | 1 |  | 0 | Q4 | 39 | -60 |  |
| Cc1cccc(C)c1OCC(C)N (stereo not shown) [Mexiletine] | 13 | 1 | Q4 | 0 |  |  |  | inhibition at 10 µM [4]: 2% |
| Cc1[nH]c(=O)c(C#N)cc1-c1ccncc1 [Milrinone] |  | 0 |  | 0 | Q4 | 23 | 4 |  |
| CO[C@@]12[C@H](COC(N)=O)C3=C(C(=O)C(C)=C(N)C3=O)N1C[C@@H]1N[C@@H]12 [Mitomycin C, Mitomycin] |  |  | Q2 |  |  |  |  | LPS % inhibition ([1]; 10 µM): 110%; Fibrin % cell toxicity (primary rat microglia [2]): 74%; Fibrin % inhibition ([4]; 10 µM): 112%; LPS % cell toxicity (primary rat microglia [5]): 49% |
